By IC50 is commonly meant the concentration at which inhibition is half-maximal.

pIC50: −log10 of the molar value.

From patent publication US9382228B2 (priority 2013, dated 2016) come the findings set out here.

The test system of one experiment is osteoclast precursors. Description: cells. In kind it is cell-based. The conditions noted are these: read-out: Osteoclast assay.
In experiment [1] the test system is phospho-FMS in THP-1 cells. Description: cells. The conditions noted are these: Homo sapiens, THP-1, read-out: pFMS inhibition in THP-1 cells.
For experiment [2], the target named is unphosphorylated c-KIT kinase (uKIT, Seq. ID no. 2) (Homo sapiens, UniProt P10721). The experiment is described as follows: biochemical. The following applies: for pIC50: uKIT, enzymatic assay, ATP 2000 μM.
Sequence of unphosphorylated c-KIT kinase (uKIT, Seq. ID no. 2) (P10721 with tags, fused parts or gaps): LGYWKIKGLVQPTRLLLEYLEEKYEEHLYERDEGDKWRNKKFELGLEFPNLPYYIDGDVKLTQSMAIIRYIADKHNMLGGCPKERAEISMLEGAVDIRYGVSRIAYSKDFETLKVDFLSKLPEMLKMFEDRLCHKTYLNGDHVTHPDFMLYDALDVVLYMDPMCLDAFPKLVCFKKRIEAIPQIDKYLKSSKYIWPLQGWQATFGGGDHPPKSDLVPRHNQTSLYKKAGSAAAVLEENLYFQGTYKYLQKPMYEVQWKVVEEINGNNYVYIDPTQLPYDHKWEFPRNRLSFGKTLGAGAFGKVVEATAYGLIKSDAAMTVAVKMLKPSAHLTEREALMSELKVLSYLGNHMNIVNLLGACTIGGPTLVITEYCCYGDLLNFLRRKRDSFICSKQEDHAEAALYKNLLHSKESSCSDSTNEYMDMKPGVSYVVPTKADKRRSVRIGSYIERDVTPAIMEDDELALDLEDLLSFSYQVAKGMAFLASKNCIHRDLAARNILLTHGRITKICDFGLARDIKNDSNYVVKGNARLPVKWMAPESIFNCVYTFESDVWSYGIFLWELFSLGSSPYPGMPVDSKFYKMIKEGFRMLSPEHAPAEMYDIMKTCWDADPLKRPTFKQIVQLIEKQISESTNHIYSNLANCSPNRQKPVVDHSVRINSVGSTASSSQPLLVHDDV
Description: uKit kinase (Seq. ID No. 2) Assay
In this assay, the oxidation of NADH (thus the decrease at A340 nm) was continuously monitored spectrophometrically. […] The inhibition reaction was started by mixing serial diluted test compound with the above reaction mixture. The absorption at 340 nm was monitored continuously for 4 hours at 30° C. on Synergy 2 plate reader (BioTech).
Experiment [3] has as its target T1, unphosphorylated c-FMS kinase (uFMS, Seq. ID no. 1) (Homo sapiens, UniProt P07333).
T1 sequence (P07333 538-972): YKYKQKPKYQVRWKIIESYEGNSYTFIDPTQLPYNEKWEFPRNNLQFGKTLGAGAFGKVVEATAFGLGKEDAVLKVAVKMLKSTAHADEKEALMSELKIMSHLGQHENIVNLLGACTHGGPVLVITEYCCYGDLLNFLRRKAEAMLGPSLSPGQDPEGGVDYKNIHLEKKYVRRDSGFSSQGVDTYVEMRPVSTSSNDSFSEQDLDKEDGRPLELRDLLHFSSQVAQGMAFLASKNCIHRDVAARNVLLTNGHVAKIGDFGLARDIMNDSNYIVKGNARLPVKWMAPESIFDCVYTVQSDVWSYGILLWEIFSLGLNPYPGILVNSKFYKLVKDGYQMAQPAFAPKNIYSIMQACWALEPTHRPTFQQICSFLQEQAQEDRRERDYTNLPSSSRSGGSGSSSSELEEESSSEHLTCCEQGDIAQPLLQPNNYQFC
Description: biochemical. The conditions noted are these: for pIC50: uFMS, enzymatic assay, ATP 500 μM.

In another experiment the test system is M-NFS-60 cells. Description: cells. The following applies: 67 h, read-out: M-NFS-60 cell proliferation.
The target of experiment [4] is unphosphorylated PDGFRβ kinase (uPDGFRβ, Seq. ID No. 3) (Homo sapiens, UniProt P09619). Description: biochemical. The following applies: for pIC50: uPDGFRb, enzymatic assay, ATP 500 μM.
Sequence of unphosphorylated PDGFRβ kinase (uPDGFRβ, Seq. ID No. 3) (P09619 557-1106): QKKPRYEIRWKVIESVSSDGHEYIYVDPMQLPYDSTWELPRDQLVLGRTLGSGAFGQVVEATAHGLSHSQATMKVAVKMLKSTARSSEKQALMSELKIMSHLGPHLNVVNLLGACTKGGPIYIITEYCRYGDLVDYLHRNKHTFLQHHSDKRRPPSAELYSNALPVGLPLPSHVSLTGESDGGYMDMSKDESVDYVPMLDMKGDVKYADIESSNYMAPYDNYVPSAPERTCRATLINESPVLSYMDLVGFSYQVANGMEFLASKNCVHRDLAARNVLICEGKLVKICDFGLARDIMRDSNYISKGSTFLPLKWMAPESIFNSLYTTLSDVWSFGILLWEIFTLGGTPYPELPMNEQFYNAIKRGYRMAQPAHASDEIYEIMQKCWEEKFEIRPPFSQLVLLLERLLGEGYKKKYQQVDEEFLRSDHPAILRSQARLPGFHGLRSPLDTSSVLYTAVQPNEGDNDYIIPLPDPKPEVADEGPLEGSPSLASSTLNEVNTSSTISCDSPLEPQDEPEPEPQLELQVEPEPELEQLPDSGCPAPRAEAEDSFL

Description for M-NFS-60 cells: M-NFS-6 Cell Proliferation Assay
A serial dilution of test compound was dispensed into a 384-well black clear bottom plate (Corning, Corning, N.Y.). Two thousand five hundred cells were added per well in 50 μL complete growth medium. […] IC50 values were calculated from a series of percent inhibition values determined at a range of inhibitor concentrations using software routines as implemented in the GraphPad Prism software package.

In the case of `COC1(C(=O)NC(=O)Nc2ccc(Oc3ccnc(-n4cnc(C)c4)c3)cn2)CCCC1` [Example 154, 1-methoxy-N-((5-((2-(4-methyl-1H-imidazol-1-yl)pyridin-4-yl)oxy)pyridin-2-yl)carbamoyl)cyclopentanecarboxamide], the pIC50 in the experiment with osteoclast precursors was 7.00 to 8.00; in experiment [1], 7.00 to 8.00; in experiment [2], less than 6.00; in experiment [3], greater than 8.00; in the experiment on M-NFS-60 cells, 7.00 to 8.00; in experiment [4], 6.00 to 7.00.

As to `Cc1ccc(-c2cc(Oc3ccc(NC(=O)NC(=O)C(C)C)nc3C)ccn2)cn1` [Example 71, N-((6-methyl-5-((6′-methyl-[2,3′-bipyridin]-4-yl)oxy)pyridin-2-yl)carbamoyl)isobutyramide], the pIC50 is greater than 8.00 in the experiment on osteoclast precursors; 7.00 to 8.00 in experiment [1]; less than 6.00 in experiment [2]; greater than 8.00 in experiment [3]; 7.00 to 8.00 in the experiment with M-NFS-60 cells; less than 6.00 in experiment [4].

For the molecule `Cn1cc(-c2cc(Oc3ccc(NC(=O)NC(=O)C4CC4)nc3)ccn2)cn1` [Example 51, N-((5-((2-(1-methyl-1H-pyrazol-4-yl)pyridin-4-yl)oxy)pyridin-2-yl)carbamoyl)cyclopropanecarboxamide], the pIC50 with osteoclast precursors was greater than 8.00; in experiment [1], greater than 8.00; in experiment [2], 6.00 to 7.00; in experiment [3] it was greater than 8.00; with M-NFS-60 cells it was 7.00 to 8.00; in experiment [4] it was less than 6.00.

As for `Cc1ncc(-c2cc(Oc3ccc(NC(=O)NC(=O)C(C)(C)C)nc3C)ccn2)s1` [Example 86, N-((6-methyl-5-((2-(2-methylthiazol-5-yl)pyridin-4-yl)oxy)pyridin-2-yl)carbamoyl)pivalamide], the pIC50 is 7.00 to 8.00 in the experiment with osteoclast precursors; greater than 8.00 in experiment [1]; less than 6.00 in experiment [2]; greater than 8.00 in experiment [3]; greater than 8.00 in the experiment with M-NFS-60 cells; less than 6.00 in experiment [4].

Turning to `Cc1nc(NC(=O)NC(=O)C(C)(C)C)ccc1Oc1ccnc(-c2ccc(C#N)nc2)c1` [Example 107, N-((5-((6′-cyano-[2,3′-bipyridin]-4-yl)oxy)-6-methylpyridin-2-yl)carbamoyl)pivalamide], the pIC50 was 7.00 to 8.00 in the experiment on osteoclast precursors; 7.00 to 8.00 in experiment [1]; less than 6.00 in experiment [2]; 7.00 to 8.00 in experiment [3]; 6.00 to 7.00 in the experiment with M-NFS-60 cells; less than 6.00 in experiment [4].

On to `CCOC(C)(C)C(=O)NC(=O)Nc1ccc(Oc2ccnc(-c3ccnc(C)c3)c2)cn1` [Example 161, 2-ethoxy-2-methyl-N-((5-((2′-methyl-[2,4′-bipyridin]-4-yl)oxy)pyridin-2-yl)carbamoyl)propanamide], for which the pIC50 is 7.00 to 8.00 in the experiment with osteoclast precursors; 7.00 to 8.00 in experiment [1]; less than 6.00 in experiment [2]; greater than 8.00 in experiment [3]; 7.00 to 8.00 in the experiment with M-NFS-60 cells; less than 6.00 in experiment [4].

`Cn1cc(-c2cc(Oc3cnc(NC(=O)NC(=O)C(C)(C)C)cn3)ccn2)cn1` [Example 176, N-((5-((2-(1-methyl-1H-pyrazol-4-yl)pyridin-4-yl)oxy)pyrazin-2-yl)carbamoyl)pivalamide]: the pIC50 was 7.00 to 8.00 in the experiment with osteoclast precursors; 7.00 to 8.00 in experiment [1]; less than 6.00 in experiment [2]; 7.00 to 8.00 in experiment [3]; less than 6.00 in the experiment on M-NFS-60 cells; less than 6.00 in experiment [4].

As for `Cn1cc(-c2cc(Oc3ccc(NC(=O)NC(=O)C4(C(F)(F)F)CC4)nc3)ccn2)cn1` [Example 33, N-((5-((2-(1-methyl-1H-pyrazol-4-yl)pyridin-4-yl)oxy)pyridin-2-yl)carbamoyl)-1-(trifluoromethyl)cyclopropanecarboxamide], the pIC50 in the experiment with osteoclast precursors was greater than 8.00; in experiment [1] it was 7.00 to 8.00; in experiment [2] it was 6.00 to 7.00; in experiment [3] it was greater than 8.00; in the experiment on M-NFS-60 cells, 7.00 to 8.00; in experiment [4], 7.00 to 8.00.

On to `Cc1cn(-c2cc(Oc3ccc(NC(=O)NC(=O)C(C)(C)C)nc3)ccn2)cn1` [Example 99, N-((5-((2-(4-methyl-1H-imidazol-1-yl)pyridin-4-yl)oxy)pyridin-2-yl)carbamoyl)pivalamide], for which the pIC50 in the experiment on osteoclast precursors is 7.00 to 8.00; in experiment [1] it was greater than 8.00; in experiment [2], less than 6.00; in experiment [3] it was greater than 8.00; in the experiment on M-NFS-60 cells, 7.00 to 8.00; in experiment [4] it was 6.00 to 7.00. Besides, the IC50 in experiment [2] (IC50 (nM) uKIT, Table 3) amounted to 4000 nM; in experiment [3] (IC50 (nM) uFMS, Table 3) it was 4 nM; in experiment [4] (IC50 (nM) uPDGFRβ, Table 3), 366 nM.

For `COC(C)(C)C(=O)NC(=O)Nc1ccc(Oc2ccnc(-n3cnc(C)c3)c2)cn1` [Example 130, 2-methoxy-2-methyl-N-((5-((2-(4-methyl-1H-imidazol-1-yl)pyridin-4-yl)oxy)pyridin-2-yl)carbamoyl)propanamide], the pIC50 was 7.00 to 8.00 in the experiment on osteoclast precursors; greater than 8.00 in experiment [1]; less than 6.00 in experiment [2]; 7.00 to 8.00 in experiment [3]; 7.00 to 8.00 in the experiment on M-NFS-60 cells; less than 6.00 in experiment [4].

For the molecule `Cn1cc(-c2cc(Oc3ccc(NC(=O)NC(=O)C45CC6CC(CC(C6)C4)C5)nc3)ccn2)cn1` [Example 38, N-((5-((2-(1-methyl-1H-pyrazol-4-yl)pyridin-4-yl)oxy)pyridin-2-yl)carbamoyl)adamantane-1-carboxamide], the pIC50 with osteoclast precursors is 7.00 to 8.00; in experiment [1], 7.00 to 8.00; in experiment [2], 7.00 to 8.00; in experiment [3] it was greater than 8.00; with M-NFS-60 cells, 7.00 to 8.00; in experiment [4], greater than 8.00.

With `CCn1cc(-c2cc(Oc3ccc(NC(=O)NC(=O)C(C)(C)OC)nc3)ccn2)cn1` [Example 170, N-((5-((2-(1-ethyl-1H-pyrazol-4-yl)pyridin-4-yl)oxy)pyridin-2-yl)carbamoyl)-2-methoxy-2-methylpropanamide], the pIC50 in the experiment with osteoclast precursors is greater than 8.00; in experiment [1], 7.00 to 8.00; in experiment [2] it was 6.00 to 7.00; in experiment [3], greater than 8.00; in the experiment with M-NFS-60 cells it was greater than 8.00; in experiment [4], less than 6.00.

In the case of `CCn1cc(-c2cc(Oc3ccc(NC(=O)NC(=O)C(C)C)nc3C)ccn2)cn1` [Example 61, N-((5-((2-(1-ethyl-1H-pyrazol-4-yl)pyridin-4-yl)oxy)-6-methylpyridin-2-yl)carbamoyl)isobutyramide], the pIC50 in the experiment with osteoclast precursors was greater than 8.00; in experiment [1], greater than 8.00; in experiment [2], less than 6.00; in experiment [3] it was greater than 8.00; with M-NFS-60 cells it was 7.00 to 8.00; in experiment [4] it was less than 6.00.

Consider `Cc1nc(NC(=O)NC(=O)C2CCC(F)(F)CC2)ccc1Oc1ccnc(-c2cnn(C)c2)c1` [Example 12, 4,4-difluoro-N-((6-methyl-5-((2-(1-methyl-1H-pyrazol-4-yl)pyridin-4-yl)oxy)pyridin-2-yl)carbamoyl)cyclohexanecarboxamide], for which the pIC50 in the experiment on osteoclast precursors was greater than 8.00; in experiment [1] it was 7.00 to 8.00; in experiment [2], 7.00 to 8.00; in experiment [3], greater than 8.00; in the experiment on M-NFS-60 cells, greater than 8.00; in experiment [4], 6.00 to 7.00.

As for `COC(C)(C)C(=O)NC(=O)Nc1ccc(Oc2ccnc(-c3cnc(C)o3)c2)cn1` [Example 159, 2-methoxy-2-methyl-N-((5-((2-(2-methyloxazol-5-yl)pyridin-4-yl)oxy)pyridin-2-yl)carbamoyl)propanamide], the pIC50 in the experiment with osteoclast precursors was 7.00 to 8.00; in experiment [1], greater than 8.00; in experiment [2], less than 6.00; in experiment [3], 7.00 to 8.00; with M-NFS-60 cells, 7.00 to 8.00; in experiment [4], less than 6.00.

Consider `Cc1ncc(-c2cc(Oc3ccc(NC(=O)NC(=O)C4(C)CCOCC4)nc3)ccn2)s1` [Example 158, 4-methyl-N-((5-((2-(2-methylthiazol-5-yl)pyridin-4-yl)oxy)pyridin-2-yl)carbamoyl)tetrahydro-2H-pyran-4-carboxamide], for which the pIC50 in the experiment with osteoclast precursors was 7.00 to 8.00; in experiment [1] it was 7.00 to 8.00; in experiment [2], less than 6.00; in experiment [3], 7.00 to 8.00; in the experiment on M-NFS-60 cells it was 7.00 to 8.00; in experiment [4], 6.00 to 7.00.

`Cc1nc(NC(=O)NC(=O)C2(C)CCC2)ccc1Oc1ccnc(-c2cnn(C)c2)c1` [Example 92, 1-methyl-N-((6-methyl-5-((2-(1-methyl-1H-pyrazol-4-yl)pyridin-4-yl)oxy)pyridin-2-yl)carbamoyl)cyclobutanecarboxamide]: the pIC50 in the experiment with osteoclast precursors was greater than 8.00; in experiment [1] it was greater than 8.00; in experiment [2], 6.00 to 7.00; in experiment [3] it was greater than 8.00; in the experiment on M-NFS-60 cells, greater than 8.00; in experiment [4], 6.00 to 7.00.
